Test results taken from PubChem BioAssay AID248 (DTP/NCI, 2004).
Values joined by “and” are separate entries in the source; they are usually repeats but may differ in a detail not shown here. Equal values may be shown once. Toxic doses and inconclusive results are not listed. Cut-off read from the data, not from the text of the source: active = T/C of 150% or more; inactive = T/C below 125%.

System: L1210 leukemia ip in BDF1 mice, survival T/C
Experiment: NCI In Vivo Anticancer Drug Screen. Data for tumor model L1210 Leukemia (intraperitoneal) in B6D2F1 (BDF1) mice
Conditions: endpoint: mean survival time, higher = longer survival
How it was run: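 Value reflects the ratio of survival in compound-treated mice to survival in vehicle-treated controls, with both groups carrying the same transplanted tumor.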

[1] = dose: 100.0 mg/kg/injection, schedule: Q01DX001 (ip), vehicle: saline
[2] = dose: 200.0 mg/kg/injection, schedule: Q01DX001 (ip), vehicle: saline
[3] = dose: 400.0 mg/kg/injection, schedule: Q01DX001 (ip), vehicle: saline
[4] = dose: 100.0 mg/kg/injection, schedule: Q01DX009 (ip), vehicle: Klucel (hydroxypropylcellulose) (HPC)
[5] = dose: 200.0 mg/kg/injection, schedule: Q01DX009 (ip), vehicle: Klucel (hydroxypropylcellulose) (HPC)
[6] = dose: 400.0 mg/kg/injection, schedule: Q01DX009 (ip), vehicle: Klucel (hydroxypropylcellulose) (HPC)
[7] = dose: 25.0 mg/kg/injection, schedule: Q01DX009 (ip), vehicle: saline
[8] = dose: 100.0 mg/kg/injection, schedule: Q01DX009 (ip), vehicle: saline with Tween-80
[9] = dose: 100.0 mg/kg/injection, schedule: Q04DX003 (ip), vehicle: saline with Tween-80
[10] = dose: 200.0 mg/kg/injection, schedule: Q01DX009 (ip), vehicle: saline with Tween-80
[11] = dose: 200.0 mg/kg/injection, schedule: Q04DX003 (ip), vehicle: saline with Tween-80
[12] = dose: 400.0 mg/kg/injection, schedule: Q01DX009 (ip), vehicle: saline with Tween-80
[13] = dose: 400.0 mg/kg/injection, schedule: Q04DX003 (ip), vehicle: saline with Tween-80
[14] = dose: 100.0 mg/kg/injection, schedule: Q01DX001 (ip), vehicle: other
[15] = dose: 200.0 mg/kg/injection, schedule: Q01DX001 (ip), vehicle: other
[16] = dose: 400.0 mg/kg/injection, schedule: Q01DX001 (ip), vehicle: other

Measured: T/C

C1CCC2[N-]CC3CCCCC3[N-]CC3CCCCC3[N-]CC3CCCCC3[N-]CC2C1.[Ni+2].[O-][Cl+3]([O-])([O-])O (configuration not stated)
inactive: dose: 12.5 mg/kg/injection, schedule: Q04DX002 (ip), vehicle: saline with Tween-80 101 % of control | dose: 25.0 mg/kg/injection, schedule: Q04DX002 (ip), vehicle: saline with Tween-80 108 % of control | dose: 50.0 mg/kg/injection, schedule: Q04DX002 (ip), vehicle: saline with Tween-80 111 % of control

COc1cc(NC(=O)c2ccc(C(=O)Nc3cc(OC)cc4cccnc34)cc2)c2ncccc2c1
inactive: [1] 94 % of control | [2] 100 % of control | [3] 103 % of control

CCCCCCCCCCCCBr
inactive: dose: 100.0 mg/kg/injection, schedule: Q04DX002 (ip), vehicle: saline with Tween-80 102 % of control | dose: 200.0 mg/kg/injection, schedule: Q04DX002 (ip), vehicle: saline with Tween-80 97 % of control | dose: 400.0 mg/kg/injection, schedule: Q04DX002 (ip), vehicle: saline with Tween-80 102 % of control

S=C1NC(c2cccs2)N2C(=S)NC(c3cccs3)N12 (configuration not stated)
inactive: dose: 100.0 mg/kg/injection, schedule: Q01DX009 (ip), vehicle: gum acacia 96 % of control | dose: 100.0 mg/kg/injection, schedule: Q04DX003 (ip), vehicle: gum acacia 92 % of control | dose: 200.0 mg/kg/injection, schedule: Q01DX009 (ip), vehicle: gum acacia 91 % of control | dose: 200.0 mg/kg/injection, schedule: Q04DX003 (ip), vehicle: gum acacia 97 % of control | dose: 400.0 mg/kg/injection, schedule: Q01DX009 (ip), vehicle: gum acacia 98 % of control | dose: 400.0 mg/kg/injection, schedule: Q04DX003 (ip), vehicle: gum acacia 97 % of control

Cc1ccc(C)c(NC(=O)OCCOc2ccccc2)c1
inactive: [4] 101 % of control | dose: 100.0 mg/kg/injection, schedule: Q04DX003 (ip), vehicle: saline 103 % of control | [5] 90 % of control | dose: 200.0 mg/kg/injection, schedule: Q04DX003 (ip), vehicle: saline 104 % of control | [6] 91 % of control | dose: 400.0 mg/kg/injection, schedule: Q04DX003 (ip), vehicle: saline 101 % of control

CC(=O)Nc1ccc(S(=O)(=O)N=S(c2ccccc2)c2ccccc2)cc1
inactive: dose: 50.0 mg/kg/injection, schedule: Q01DX001 (ip), vehicle: carboxymethylcellulose (CMC) 101 % of control | dose: 100.0 mg/kg/injection, schedule: Q01DX001 (ip), vehicle: carboxymethylcellulose (CMC) 101 % of control | dose: 200.0 mg/kg/injection, schedule: Q01DX001 (ip), vehicle: carboxymethylcellulose (CMC) 94 % of control | dose: 400.0 mg/kg/injection, schedule: Q01DX001 (ip), vehicle: carboxymethylcellulose (CMC) 97 % of control

C=CCc1ccc(O)c(OC)c1
inactive: dose: 100.0 mg/kg/injection, schedule: Q04DX002 (ip), vehicle: saline + alcohol 108 % of control | dose: 200.0 mg/kg/injection, schedule: Q04DX002 (ip), vehicle: saline + alcohol 101 % of control | dose: 400.0 mg/kg/injection, schedule: Q04DX002 (ip), vehicle: saline + alcohol 97 % of control

CCN1CCc2ccccc2C1c1ccccc1 (configuration not stated)
inactive: [7] 104 % of control | dose: 50.0 mg/kg/injection, schedule: Q01DX009 (ip), vehicle: saline 103 % of control | dose: 100.0 mg/kg/injection, schedule: Q01DX009 (ip), vehicle: saline 106 % of control and 115 % of control

CCOC(=O)c1c(Cl)c(Cl)c(Cl)c(Cl)c1C(=O)OCC
inactive: [4] 105 % of control | [8] 101 % of control | dose: 100.0 mg/kg/injection, schedule: Q04DX003 (ip), vehicle: Klucel (hydroxypropylcellulose) (HPC) 90 % of control | [9] 100 % of control | [5] 104 % of control | [10] 90 % of control | dose: 200.0 mg/kg/injection, schedule: Q04DX003 (ip), vehicle: Klucel (hydroxypropylcellulose) (HPC) 95 % of control | [11] 104 % of control | [6] 100 % of control | [12] 93 % of control | dose: 400.0 mg/kg/injection, schedule: Q04DX003 (ip), vehicle: Klucel (hydroxypropylcellulose) (HPC) 105 % of control | [13] 102 % of control

Cn1c(=O)c2[nH]c(CC3=CCCCC3)nc2n(C)c1=O
inactive: dose: 50.0 mg/kg/injection, schedule: Q01DX001 (ip), vehicle: other 97 % of control | [14] 92 % of control | [15] 95 % of control | [16] 90 % of control

O=C(O)c1cc(-c2ccc(N(CCCl)CCCl)cc2)nc2ccccc12
inactive: [14] 104 % of control | [15] 104 % of control | [16] 96 % of control

CCOc1ccc(OCC)c(NC(=O)c2ccccc2)c1
inactive: [9] 94 % of control | [11] 92 % of control | [13] 95 % of control

NC(=S)Nc1ccccc1
inactive: dose: 5.0 mg/kg/injection, schedule: Q01DX001 (ip), vehicle: saline 100 % of control | dose: 10.0 mg/kg/injection, schedule: Q01DX001 (ip), vehicle: saline 96 % of control | dose: 20.0 mg/kg/injection, schedule: Q01DX001 (ip), vehicle: saline 102 % of control | dose: 40.0 mg/kg/injection, schedule: Q01DX001 (ip), vehicle: saline 101 % of control | dose: 80.0 mg/kg/injection, schedule: Q01DX001 (ip), vehicle: saline 97 % of control

c1ccc(C(c2ccccc2)c2ccc3ccccc3n2)cc1
inactive: dose: 100.0 mg/kg/injection, schedule: Q04DX003 (ip), vehicle: acetone 90 % of control | dose: 200.0 mg/kg/injection, schedule: Q04DX003 (ip), vehicle: acetone 99 % of control | dose: 400.0 mg/kg/injection, schedule: Q04DX003 (ip), vehicle: acetone 94 % of control

CCc1ncc(C)n1Cc1ccccc1
inactive: dose: 6.25 mg/kg/injection, schedule: Q01DX009 (ip), vehicle: saline 109 % of control | dose: 12.5 mg/kg/injection, schedule: Q01DX009 (ip), vehicle: saline 102 % of control | [7] 102 % of control and 115 % of control

C=CCOC(=O)CCCCCCCCCCC
inactive: [8] 107 % of control | [10] 107 % of control | [12] 96 % of control

O=C(O)CNC(=S)Nc1ccc(S(=O)(=O)c2ccc(NC(=S)NCC(=O)O)cc2)cc1
inactive: [1] 102 % of control | [2] 102 % of control | [3] 102 % of control

Nc1nc(S)c(N)c(=S)[nH]1
inactive: dose: 9.5 mg/kg/injection, schedule: Q01DX001 (ip), vehicle: carboxymethylcellulose (CMC) 105 % of control | dose: 19.0 mg/kg/injection, schedule: Q01DX001 (ip), vehicle: carboxymethylcellulose (CMC) 94 % of control | dose: 38.0 mg/kg/injection, schedule: Q01DX001 (ip), vehicle: carboxymethylcellulose (CMC) 97 % of control

O=C(CSc1cc(Cl)ccc1Cl)Nc1ccccc1
inactive: [14] 95 % of control | [15] 96 % of control | [16] 96 % of control

NC12C3(Cl)C4(Cl)C5(OCCO5)C5(Cl)C3(Cl)C1(Cl)C5(Cl)C24Cl (configuration not stated)
inactive: dose: 50.0 mg/kg/injection, schedule: Q01DX001 (ip), vehicle: saline 102 % of control | [1] 102 % of control | [2] 90 % of control | [3] 102 % of control

CCCCCCCCCCCCCC(=O)OCC(C)C
inactive: dose: 222.0 mg/kg/injection, schedule: Q01DX Z (ip), vehicle: saline 94 % of control | dose: 333.0 mg/kg/injection, schedule: Q01DX Z (ip), vehicle: saline 90 % of control | dose: 500.0 mg/kg/injection, schedule: Q01DX Z (ip), vehicle: saline 94 % of control

CC(/C=N/N=C(N(C)C)N(C)C)=N/N=C(N(C)C)N(C)C
inactive: dose: 15.0 mg/kg/injection, schedule: Q01DX Z (ip), vehicle: methylcellulose (MC) 94 % of control | dose: 30.0 mg/kg/injection, schedule: Q01DX Z (ip), vehicle: methylcellulose (MC) 97 % of control | dose: 30.0 mg/kg/injection, schedule: Q01DX Z (oral), vehicle: methylcellulose (MC) 102 % of control | dose: 60.0 mg/kg/injection, schedule: Q01DX Z (ip), vehicle: methylcellulose (MC) 97 % of control | dose: 60.0 mg/kg/injection, schedule: Q01DX Z (oral), vehicle: methylcellulose (MC) 95 % of control | dose: 120.0 mg/kg/injection, schedule: Q01DX Z (ip), vehicle: methylcellulose (MC) 101 % of control

CCOC(=O)C[N+]1(C)C2CCC1CC(O)C2 (configuration not stated)
inactive: [1] 94 % of control | [2] 90 % of control | [3] 94 % of control
